Reference: patent publication US9675823B2 (Colgate-Palmolive Company, priority 2012, dated 2017)

How the values were obtained:
[1] = Precipitation time upon mixing the cysteine solution and the ZLC solution; type: physicochemical
[2] = pH of the mixture or of the acidified cysteine solution; details: 0.05 g of cysteine in 1 mL of 0.0001 M HCl

Row | Structure (SMILES) | precipitation upon mixing ([1]; 0.05 g amino acid in 1 mL 0.0001M HCl, 4.95 g ZLC stock solution with no glycerol) | effect on precipitation time of ZLC ([1]; sulfur-containing amino acids) | pH of solution 1 [2]
1 | CSCC[C@H](N)C(=O)O [methionine] | No precipitation occurred | no effect | 
2 | N[C@@H](CS)C(=O)O [cysteine] |  |  | 5.13
